# Measured values taken from patent US9572812B2, “Compositions and methods involving polymer, solvent, and high viscosity liquid carrier material” (DURECT CORPORATION, priority 2013, dated 2017).
# Assays:
# [1] = Density and viscosity of placebo vehicle and formulation; type: physicochemical
# From the text: Formulation No. R66 consisted of SAIB/NMP/PLGA/RSP in the following weight proportion: 45.5/27.3/18.2/9.0. Formulation No. R131 consisted of SAIB/PC/PLGA/RSP in the following weight proportions 40.0/33.7/17.3/9.0. It should be noted that Formulation Nos. […] and […] were formulated to yield approximately the same viscosity (see below Table). However, to achieve similar viscosities, more PC must be added to the vehicle, with a corresponding decrease in SAIB (and a minor decrease in PLGA). [table] The difference in the above-noted settling versus the difference in vehicle density is notable. As shown in the first Table of this Example, the viscosity of the placebo vehicle for Formulation No. R66 at 5° C. is slightly higher than the viscosity of the placebo vehicle for Formulation No. R131 at 5° C. […] R131
# [2] = Risperidone solubility in vehicle / solvent; type: physicochemical; conditions: NMP versus PC
structure (smiles),measurement,setting,value
Cc1nc2n(c(=O)c1CCN1CCC(c3noc4cc(F)ccc34)CC1)CCCC2 [risperidone],density of risperidone,[1],1.30 g/mL
same,risperidone solubility in solvents,[2],higher solubility in NMP than in PC
